Test [1] deals with Acyrthosiphon pisum. Put plainly: Concentration required for 50% inhibition of acyrthosiphon pisum (ACY) was expressed as percent of active ingredient. In kind it is functional, organism-based.
Test [2] deals with Galleria mellonella. Put plainly: Effective dose that causes 50 % inhibition of Galleria mellonella (GAL) was determined. In kind it is functional.
Test [3] relates to Dysdercus cingulatus. Put plainly: Effective dose that causes 50 % inhibition of Dysdercus cingulatus (DYS) was determined. In kind it is functional.

IC50 and ED50 data for five molecules are collected here from ChEMBL document CHEMBL1126464, “Carbamate series of juvenoids” (Bioorg Med Chem Lett, 1992).

Each structure is given as a SMILES string.

In general, ED50 refers to the dose that gives a 50% effect, or the effect in half of the subjects.

With `CCOC(=O)NCCOc1ccc(C[C@H]2CCCC[C@@H]2O)cc1`, the IC50 in test [1] is reported as above 0.1%. For the same molecule, the ED50 is 0.8 µg/kg in test [2] and 40 µg/kg in test [3].

Turning to `CCOC(=O)NCCOc1ccc(C[C@@H]2CCCC[C@@H]2O)cc1`, the IC50 in test [1] was above 0.1%. The ED50 in test [2] worked out at 0.8 µg/kg; in test [3] it was 1 µg/kg.

Take `CCOC(=O)/C=C(C)/C=C/CC(C)CCCC(C)C` (stereo not given) [HYDROPRENE]: the IC50 in test [1] was 0.04%. Also, the results for the ED50 in test [2] and in test [3] were 10 µg/kg and 1000 µg/kg, respectively.

Consider `CCOC(=O)NCCOc1ccc(CC2CCCCC2=O)cc1` (stereo not given), for which, in test [1], the IC50 is recorded as 0.05%. Also, the ED50 in test [2] was found to be 0.2 µg/kg; in test [3] it was 8 µg/kg.

As to `CCOC(=O)NCCOc1ccc(CC2CCCCC23OCCO3)cc1` (stereo not given), the IC50 in test [1] stood at 0.005%. Further, the ED50 in test [2] amounted to 0.8 µg/kg; in test [3], 80 µg/kg.
